What was measured:
[1] = target: T1, catalytic domain of human Bub1 (amino acids 704-1085) (Homo sapiens, UniProt O43683); test: Bub1 kinase assay (TR-FRET); type: biochemical; conditions: 10 μM ATP, avg, read-out: Bub1 avg (IC50 [mol/l])
T1 construct: catalytic domain of human Bub1 (amino acids 704-1085); His6 (N); made in house; host or cells: insect cells (Hi5)
Outline: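 Readout is the 665/620 nm TR-FRET ratio from anti-phosphoserine antibody, Eu-labelled anti-mouse IgG and streptavidin-XL665, scaled between no-enzyme and uninhibited controls. Reaction: 1 μM biotinylated peptide, 10 μM ATP, 60 min, 22 °C, after 15 min compound preincubation with His6-Bub1 (704-1085, insect-expressed, ~200 ng/ml).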

HeLa = test: Proliferation assay (crystal violet), HeLa; type: cell-based; conditions: Homo sapiens, HeLa, 96 h, HeLa cells; 4 days incubation; crystal violet staining; read-out: IC50 inhibition of proliferation, HeLa
Outline: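 Seed 1000–5000 cells/well, 10% FCS; 24 h later replace medium and add compound (0.001–10 μM, 0.5% DMSO); incubate 4 d; glutaraldehyde fix, 0.1% crystal violet pH 3.0, elute with 10% acetic acid; A595; 4-parameter IC50.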

T1 sequence (O43683 704-1085): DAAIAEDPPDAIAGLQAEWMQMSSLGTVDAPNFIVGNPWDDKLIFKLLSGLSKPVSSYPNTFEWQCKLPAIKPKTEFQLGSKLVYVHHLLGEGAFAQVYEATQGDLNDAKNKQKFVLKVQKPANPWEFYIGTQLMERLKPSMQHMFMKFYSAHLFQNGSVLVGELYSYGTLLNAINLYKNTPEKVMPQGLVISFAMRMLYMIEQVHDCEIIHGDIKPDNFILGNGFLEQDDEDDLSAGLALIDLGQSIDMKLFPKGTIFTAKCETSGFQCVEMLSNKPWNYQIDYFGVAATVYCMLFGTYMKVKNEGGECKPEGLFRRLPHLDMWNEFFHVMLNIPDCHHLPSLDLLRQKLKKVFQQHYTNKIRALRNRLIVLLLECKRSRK

| Structure (SMILES) | IC50 [1] [nM] | IC50 (HeLa) [nM] |
| --- | --- | --- |
| Cc1nsc(Nc2cnc(C(F)(F)F)cn2)c1C(=O)Nc1ccc(OC2CCN(C(CF)CF)C2)nc1 (stereo not shown) [Example 313, N-(6-{[1-(1,3-difluoropropan-2-yl)pyrrolidin-3-yl]oxy}pyridin-3-yl)-3-methyl-5-{[5-(trifluoromethyl)pyrazin-2-yl]amino}-1,2-thiazole-4-carboxamide] | ≥ 20000 | 620 |
| Cc1nsc(Nc2cnc(C(F)(F)F)cn2)c1C(=O)Nc1ccc(F)c(OC2CCN(CC(F)F)C2)c1 (stereo not shown) [Example 314, N-(3-{[1-(2,2-difluoroethyl)pyrrolidin-3-yl]oxy}-4-fluorophenyl)-3-methyl-5-{[5-(trifluoromethyl)pyrazin-2-yl]amino}-1,2-thiazole-4-carboxamide] | ≥ 20000 | 410 |
| Cc1nsc(Nc2cnc(C(F)(F)F)cn2)c1C(=O)Nc1ccc(F)c(OC2CCN(CC(F)(F)F)C2)c1 (stereo not shown) [Example 315, N-(4-fluoro-3-{[1-(2,2,2-trifluoroethyl)pyrrolidin-3-yl]oxy}phenyl)-3-methyl-5-{[5-(trifluoromethyl)pyrazin-2-yl]amino}-1,2-thiazole-4-carboxamide] | ≥ 20000 | 780 |
| Cc1nsc(Nc2cnc(C(F)(F)F)cn2)c1C(=O)Nc1ccc(F)c(OCC2CCN(CC(F)F)C2)c1 (stereo not shown) [Example 316, N-(3-{[1-(2,2-difluoroethyl)pyrrolidin-3-yl]methoxy}-4-fluorophenyl)-3-methyl-5-{[5-(trifluoromethyl)pyrazin-2-yl]amino}-1,2-thiazole-4-carboxamide] | ≥ 20000 | 430 |
| Cc1nsc(Nc2cnc(C(F)(F)F)cn2)c1C(=O)Nc1ccc(F)c(OCC2CCN(CCF)C2)c1 (stereo not shown) [Example 317, N-(4-fluoro-3-{[1-(2-fluoroethyl)pyrrolidin-3-yl]methoxy}phenyl)-3-methyl-5-{[5-(trifluoromethyl)pyrazin-2-yl]amino}-1,2-thiazole-4-carboxamide] | > 20000 | 450 |
| Cc1nsc(Nc2cnc(C(F)(F)F)cn2)c1C(=O)Nc1ccc(F)c(OCC2CCN(C(CF)CF)C2)c1 (stereo not shown) [Example 320, N-(3-{[1-(1,3-difluoropropan-2-yl)pyrrolidin-3-yl]methoxy}-4-fluorophenyl)-3-methyl-5-{[5-(trifluoromethyl)pyrazin-2-yl]amino}-1,2-thiazole-4-carboxamide] | ≥ 20000 | 680 |
| Cc1nsc(Nc2cnc(C(F)(F)F)cn2)c1C(=O)Nc1ccc(OCCNCCF)nc1 [Example 321, N-(6-{2-[(2-fluoroethyl)amino]ethoxy}pyridin-3-yl)-3-methyl-5-{[5-(trifluoromethyl)pyrazin-2-yl]amino}-1,2-thiazole-4-carboxamide] | 14000 | 3400 |
| Cc1nsc(Nc2cnc(C(F)(F)F)cn2)c1C(=O)Nc1ccc(OCCNCC(F)(F)F)nc1 [Example 322, 3-methyl-N-(6-{2-[(2,2,2-trifluoroethyl)amino]ethoxy}pyridin-3-yl)-5-{[5-(trifluoromethyl)pyrazin-2-yl]amino}-1,2-thiazole-4-carboxamide] | ≥ 20000 | 690 |

Reference: patent publication US20170334899A1, “AMINO-SUBSTITUTED ISOTHIAZOLES” (Bayer Pharma Aktiengesellschaft, priority 2014, published 2017)
